Results on 15 compounds are retold here after PubChem BioAssay AID212 (DTP/NCI, 2004).

Each structure is given as a SMILES string. Several values for one entry are separate records, joined by “and”; a condition that tells them apart may be missing. Equal entries are not always repeated. Inconclusive results are not listed.

This assay has as its system BDF1 mice, colon carcinoma 38 sc, T/C %. Description: NCI In Vivo Anticancer Drug Screen. Data for tumor model Colon Carcinoma 38 (subcutaneous) in B6D2F1 (BDF1) mice. As to conditions: endpoint: median tumor weight (est.), higher = larger tumour. The procedure, abridged:
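Compound antitumor activity was assessed in mice carrying transplantable tumors. Survival or tumor size was recorded, and each value is the treated-group measurement divided by that of the vehicle-treated control group.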

[1] abbreviates: dose: 100.0 mg/kg/injection, schedule: Q07DX002 (ip), vehicle: Klucel (hydroxypropylcellulose) (HPC).
The mark [2] stands for this setting: dose: 200.0 mg/kg/injection, schedule: Q07DX002 (ip), vehicle: Klucel (hydroxypropylcellulose) (HPC).
The mark [3] stands for this setting: dose: 400.0 mg/kg/injection, schedule: Q07DX002 (ip), vehicle: Klucel (hydroxypropylcellulose) (HPC).
The mark [4] stands for this setting: dose: 25.0 mg/kg/injection, schedule: Q07DX002 (ip), vehicle: saline with Tween-80.
The mark [5] stands for this setting: dose: 50.0 mg/kg/injection, schedule: Q07DX002 (ip), vehicle: saline with Tween-80.
Where [6] appears, read: dose: 100.0 mg/kg/injection, schedule: Q07DX002 (ip), vehicle: saline with Tween-80.
The mark [7] stands for this setting: dose: 100.0 mg/kg/injection, schedule: Q07DX002 (ip), vehicle: saline.

On to `CN(C)/N=N/c1nc[nH]c1C(N)=O`, for which the T/C (dose: 12.5 mg/kg/injection, schedule: Q07DX002 (ip), vehicle: Klucel (hydroxypropylcellulose) (HPC)) was 28 % of control; the T/C (dose: 25.0 mg/kg/injection, schedule: Q07DX002 (ip), vehicle: Klucel (hydroxypropylcellulose) (HPC)) was 64 % of control; the T/C (dose: 25.0 mg/kg/injection, schedule: Q07DX003 (ip), vehicle: Klucel (hydroxypropylcellulose) (HPC)) was 75 % of control; the T/C (dose: 25.0 mg/kg/injection, schedule: Q07DX003 (ip), vehicle: carboxymethylcellulose (CMC)) was 37 % of control; the T/C (dose: 50.0 mg/kg/injection, schedule: Q07DX002 (ip), vehicle: Klucel (hydroxypropylcellulose) (HPC)) was 40 % of control; the T/C (dose: 50.0 mg/kg/injection, schedule: Q07DX003 (ip), vehicle: Klucel (hydroxypropylcellulose) (HPC)) was 43 % of control. In addition, the T/C was 28 % of control (dose: 50.0 mg/kg/injection, schedule: Q07DX003 (ip), vehicle: carboxymethylcellulose (CMC)); 74 % of control and 75 % of control under setting [1]; 85 % of control (dose: 100.0 mg/kg/injection, schedule: Q07DX003 (ip), vehicle: Klucel (hydroxypropylcellulose) (HPC)); 16 % of control (dose: 100.0 mg/kg/injection, schedule: Q07DX003 (ip), vehicle: carboxymethylcellulose (CMC)); 12 % of control and 28 % of control under setting [2]; 9 % of control (dose: 200.0 mg/kg/injection, schedule: Q07DX003 (ip), vehicle: Klucel (hydroxypropylcellulose) (HPC)). Besides, the T/C reads like this: (dose: 200.0 mg/kg/injection, schedule: Q07DX003 (ip), vehicle: carboxymethylcellulose (CMC)) 16 % of control; under setting [3], 13 % of control and 33 % of control; (dose: 400.0 mg/kg/injection, schedule: Q07DX003 (ip), vehicle: Klucel (hydroxypropylcellulose) (HPC)) 44 % of control.
On to `O=S(=O)(CCl)OCCCl`, for which the T/C (dose: 12.5 mg/kg/injection, schedule: Q07DX002 (ip), vehicle: saline with Tween-80) was 103 % of control; the T/C under setting [4] was 111 % of control; the T/C under setting [5] was 58 % of control; the T/C under setting [6] was 55 % of control.
As to `CCOC(OCC)C(=O)OCC(=O)[C@]1(O)Cc2c(O)c3c(c(O)c2[C@@H](OC2CC(N)C(O)C(C)O2)C1)C(=O)c1c(OC)cccc1C3=O` (some centres undefined), the T/C was 85 % of control (dose: 0.5 mg/kg/injection, schedule: Q07DX002 (ip), vehicle: water); 107 % of control (dose: 2.0 mg/kg/injection, schedule: Q07DX002 (ip), vehicle: water); 88 % of control (dose: 4.0 mg/kg/injection, schedule: Q07DX002 (ip), vehicle: water).
For the compound `C#CCN(Cc1ccc2nc(N)[nH]c(=O)c2c1)c1ccc(C(=O)NC(CCC(=O)O)C(=O)O)cc1` (centres undefined), the T/C (dose: 50.0 mg/kg/injection, schedule: Q07DX002 (ip), vehicle: sodium bicarbonate) was 60 % of control; the T/C (dose: 100.0 mg/kg/injection, schedule: Q07DX002 (ip), vehicle: sodium bicarbonate) was 70 % of control; the T/C (dose: 200.0 mg/kg/injection, schedule: Q07DX002 (ip), vehicle: sodium bicarbonate) is 49 % of control; the T/C (dose: 400.0 mg/kg/injection, schedule: Q07DX002 (ip), vehicle: sodium bicarbonate) was 51 % of control.
Turning to `CN=C(N)N/N=C(\C)c1ccc2oc3ccc(/C(C)=N/NC(N)=NC)cc3c2c1`, the T/C is 117 % of control under setting [4], 100 % of control under setting [5] and 66 % of control under setting [6].
As to `COC1C(/C=C/C(C)=O)OC2OC(C)(C)OC21` (centres undefined), under setting [7], the T/C was 114 % of control and 98 % of control.
As to `N=[N+]=CC(=O)OCC(N)C(=O)O` (centres undefined), the T/C (dose: 3.12 mg/kg/injection, schedule: Q07DX002 (ip), vehicle: water) was 97 % of control; the T/C (dose: 3.12 mg/kg/injection, schedule: Q07DX003 (ip), vehicle: clinical formulation) is 159 % of control; the T/C (dose: 6.25 mg/kg/injection, schedule: Q07DX002 (ip), vehicle: water) was 117 % of control; the T/C (dose: 6.25 mg/kg/injection, schedule: Q07DX003 (ip), vehicle: clinical formulation) was 110 % of control; the T/C (dose: 12.5 mg/kg/injection, schedule: Q07DX003 (ip), vehicle: clinical formulation) is 88 % of control; the T/C (dose: 25.0 mg/kg/injection, schedule: Q07DX002 (ip), vehicle: water) was 99 % of control. The T/C (dose: 25.0 mg/kg/injection, schedule: Q07DX003 (ip), vehicle: clinical formulation) was 100 % of control and the T/C (dose: 50.0 mg/kg/injection, schedule: Q07DX002 (ip), vehicle: water) was 91 % of control.
For the compound `CCN(CC)CCOC(=O)/C=C\c1cccc2c(=O)cc(-c3ccccc3)oc12`, the T/C was 102 % of control under setting [1], 65 % of control under setting [2] and 52 % of control under setting [3].
As for `O=C(O)CCc1cccc2c(=O)cc(-c3ccccc3)oc12`, the T/C was 60 % of control under setting [7]; 100 % of control (dose: 200.0 mg/kg/injection, schedule: Q07DX002 (ip), vehicle: saline); 120 % of control (dose: 400.0 mg/kg/injection, schedule: Q07DX002 (ip), vehicle: saline).
For `O=[N+]([O-])O.[Ga]`, the T/C is, setting by setting: (dose: 12.5 mg/kg/injection, schedule: Q07DX003 (ip), vehicle: saline) 122 % of control; (dose: 25.0 mg/kg/injection, schedule: Q07DX002 (ip), vehicle: saline) 159 % of control; (dose: 25.0 mg/kg/injection, schedule: Q07DX003 (ip), vehicle: saline) 121 % of control; (dose: 50.0 mg/kg/injection, schedule: Q07DX002 (ip), vehicle: saline) 78 % of control; under setting [7], 81 % of control; (dose: 100.0 mg/kg/injection, schedule: Q07DX003 (ip), vehicle: saline) 44 % of control.
Regarding `CO[C@@H]1[C@H](O)CC[C@]2(CO2)[C@H]1[C@@]1(C)O[C@@H]1CC=C(C)C`, the T/C (dose: 3.12 mg/kg/injection, schedule: Q07DX002 (ip), vehicle: saline with Tween-80) is 46 % of control and 55 % of control; the T/C (dose: 6.25 mg/kg/injection, schedule: Q07DX002 (ip), vehicle: saline with Tween-80) is 50 % of control and 61 % of control; the T/C under setting [5] was 63 % of control and 68 % of control and 71 % of control; the T/C (dose: 200.0 mg/kg/injection, schedule: Q07DX002 (ip), vehicle: saline with Tween-80) is 92 % of control.
For the compound `O=NN(CCCl)C(=O)NC1[C@H](O)CCC[C@@H]1O` (some centres undefined), the T/C was 68 % of control (dose: 1.25 mg/kg/injection, schedule: Q07DX002 (ip), vehicle: saline); 53 % of control and 76 % of control (dose: 2.5 mg/kg/injection, schedule: Q07DX002 (ip), vehicle: saline); 9 % of control and 26 % of control (dose: 10.0 mg/kg/injection, schedule: Q07DX002 (ip), vehicle: saline).
For the compound `CCCCCc1cc(/C=C2/N=C(c3ccc[nH]3)C=C2OC)[nH]c1C`, the T/C is 94 % of control (dose: 0.5 mg/kg/injection, schedule: Q07DX002 (ip), vehicle: saline with Tween-80); 163 % of control (dose: 2.0 mg/kg/injection, schedule: Q07DX002 (ip), vehicle: saline with Tween-80); 106 % of control (dose: 4.0 mg/kg/injection, schedule: Q07DX002 (ip), vehicle: saline with Tween-80); 120 % of control (dose: 8.0 mg/kg/injection, schedule: Q07DX002 (ip), vehicle: saline with Tween-80); 108 % of control (dose: 16.0 mg/kg/injection, schedule: Q07DX002 (ip), vehicle: saline with Tween-80).
As to `CCOC(=O)c1cn(C)c2c1C(O)=C(C(=O)OC)CC(=O)N2`, the T/C under setting [5] was 81 % of control; the T/C under setting [6] is 119 % of control; the T/C (dose: 400.0 mg/kg/injection, schedule: Q07DX002 (ip), vehicle: saline with Tween-80) was 88 % of control; the T/C (dose: 800.0 mg/kg/injection, schedule: Q07DX002 (ip), vehicle: saline with Tween-80) is 97 % of control.
In the case of `COc1cccc2c1C(=N)c1c(O)c3c(c(O)c1C2=O)C[C@@](O)(C(C)=O)C[C@@H]3OC1CC(N)C(O)C(C)O1` (some centres undefined), the T/C is 71 % of control (dose: 2.25 mg/kg/injection, schedule: Q07DX002 (ip), vehicle: saline); 115 % of control (dose: 4.5 mg/kg/injection, schedule: Q07DX002 (ip), vehicle: saline); 99 % of control (dose: 9.0 mg/kg/injection, schedule: Q07DX002 (ip), vehicle: saline).
